Patent US9474790B2, “Stable, protracted GLP-1/glucagon receptor co-agonists for medical use” (Novo Nordisk A/S, priority 2013, dated 2016)
Numbered stars: 1 amine (or outer) side, 2 acyl side, 3 side chain; on linkers, the order of the positions; unused ones are H or OH. Square brackets hold non-standard residues; d marks the D form. Side chains are listed from the residue outwards. Peptide text beside a SMILES is read from it. * marks the point of attachment. C18 diacid = O=C(O)CCCCCCCCCCCCCCCCC(=O)*; γGlu = O=C(O)[C@H](CCC(=O)[*:2])N[*:1]; AEEA = NCCOCCOCC(=O)O; Aib = CC(C)(N)C(=O)O

Assays:
human GLP-1 receptor = target: T1, human GLP-1 receptor (Homo sapiens, UniProt P43220); test: GLP-1 receptor binding, 125I-GLP-1 displacement SPA on isolated membranes; details: displacement of 125I-GLP-1 from membranes; read-out: IC50 GLP-1R
T1 construct: expressed in transfected cells; host or cells: BHK cells (parent BHKTS13), clone FCW467-12A/KZ10-1, with CRE luciferase
T1 sequence (P43220 24-463): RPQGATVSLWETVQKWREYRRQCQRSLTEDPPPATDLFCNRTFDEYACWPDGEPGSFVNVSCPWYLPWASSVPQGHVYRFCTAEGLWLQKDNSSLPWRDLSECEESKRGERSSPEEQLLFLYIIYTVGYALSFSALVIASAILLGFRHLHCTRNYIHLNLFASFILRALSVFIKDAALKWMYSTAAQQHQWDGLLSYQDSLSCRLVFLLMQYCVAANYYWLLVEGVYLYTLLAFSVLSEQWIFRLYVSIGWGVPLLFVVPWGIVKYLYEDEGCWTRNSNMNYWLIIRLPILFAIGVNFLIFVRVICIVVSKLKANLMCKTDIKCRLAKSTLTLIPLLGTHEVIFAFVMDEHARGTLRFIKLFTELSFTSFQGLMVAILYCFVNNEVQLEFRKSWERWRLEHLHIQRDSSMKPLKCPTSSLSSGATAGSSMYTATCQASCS
In short: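 Test derivatives, serially diluted, competed with 125I-GLP-1(7-36)NH2 for the human GLP-1 receptor on BHK membranes, read by WGA-bead scintillation proximity after 2 h at 30°C, pH 7.4 HEPES/EGTA/MgCl2 buffer. Final serum albumin was either ≤0.001% or 2.0%; IC50 from non-linear fit.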

[1] = Chemical stability assessment by RP-UPLC; format: physicochemical; details: 333 μM, 8 mM phosphate buffer pH 7.3, 37° C. vs 5° C.
In short: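 Purity loss = (purity after 14 days at 5° C. minus that at 37° C.) relative to the 5° C. value, purity being main-peak area % by RP-UPLC with UV at 215 nm. Samples were 333 μM in 8 mM phosphate, pH 7.3; gradient adjusted for outlying retention times.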

Compound	IC50 (human GLP-1 receptor)	Purity loss; 14 days at 37° C. [1]
CC(C)C[C@H](NC(=O)[C@H](Cc1ccc(O)cc1)NC(=O)[C@H](CCCCN)NC(=O)[C@H](CO)NC(=O)[C@H](CC(C)C)NC(=O)[C@H](CC(=O)O)NC(=O)[C@H](CO)NC(=O)[C@@H](NC(=O)[C@H](Cc1ccccc1)NC(=O)[C@@H](NC(=O)CNC(=O)[C@H](CCC(N)=O)NC(=O)C(C)(C)NC(=O)[C@@H](N)Cc1c[nH]cn1)[C@@H](C)O)[C@@H](C)O)C(=O)N[C@@H](CC(=O)O)C(=O)N[C@@H](C)C(=O)N[C@@H](CCCNC(=N)N)C(=O)N[C@@H](CCCNC(=N)N)C(=O)N[C@@H](C)C(=O)N[C@@H](CCCNC(=N)N)C(=O)N[C@@H](CC(=O)O)C(=O)N[C@@H](Cc1ccccc1)C(=O)N[C@H](C(=O)N[C@@H](CCC(N)=O)C(=O)N[C@@H](Cc1c[nH]c2ccccc12)C(=O)N[C@@H](CC(C)C)C(=O)N[C@@H](CC(C)C)C(=O)N[C@@H](CC(N)=O)C(=O)N[C@@H](CCCCNC(=O)CC[C@H](NC(=O)CC[C@H](NC(=O)COCCOCCNC(=O)COCCOCCNC(=O)CC[C@H](NC(=O)CCCCCCCCCCCCCCCCC(=O)O)C(=O)O)C(=O)O)C(=O)O)C(N)=O)C(C)C [Example 65] (H-H[Aib]QGTFTSDLSKYLDARRARDFVQWLLNK([γGlu-γGlu-AEEA-AEEA-γGlu-C18 diacid])-NH2; N-terminus assumed)	0.5 nM	3%
CC(C)C[C@H](NC(=O)[C@H](Cc1ccc(O)cc1)NC(=O)[C@H](CCCCN)NC(=O)[C@H](CO)NC(=O)[C@H](CC(C)C)NC(=O)[C@H](CC(=O)O)NC(=O)[C@H](CO)NC(=O)[C@@H](NC(=O)[C@H](Cc1ccccc1)NC(=O)[C@@H](NC(=O)CNC(=O)[C@H](CCC(N)=O)NC(=O)C(C)(C)NC(=O)[C@@H](N)Cc1c[nH]cn1)[C@@H](C)O)[C@@H](C)O)C(=O)N[C@@H](CC(=O)O)C(=O)N[C@@H](C)C(=O)N[C@@H](CCCNC(=N)N)C(=O)N[C@@H](CCCNC(=N)N)C(=O)N[C@@H](C)C(=O)N[C@@H](CCCNC(=N)N)C(=O)N[C@@H](CC(=O)O)C(=O)N[C@@H](Cc1ccccc1)C(=O)N[C@H](C(=O)N[C@@H](CCC(N)=O)C(=O)N[C@@H](Cc1c[nH]c2ccccc12)C(=O)N[C@@H](CC(C)C)C(=O)N[C@@H](CC(C)C)C(=O)N[C@@H](CO)C(=O)N[C@@H](CCCCNC(=O)CC[C@H](NC(=O)CC[C@H](NC(=O)COCCOCCNC(=O)COCCOCCNC(=O)CC[C@H](NC(=O)CCCCCCCCCCCCCCCCC(=O)O)C(=O)O)C(=O)O)C(=O)O)C(N)=O)C(C)C [Example 66, N^ε29-[(4S)-4-carboxy-4-[[(4S)-4-carboxy-4-[[2-[2-[2-[[2-[2-[2-[[(4S)-4-carboxy-4-(17-carboxyheptadecanoylamino)butanoyl]amino]ethoxy]ethoxy]acetyl]amino]ethoxy]ethoxy]acetyl]amino]butanoyl]amino]butanoyl]-[Aib2,Leu10,Ala16,Arg20,Leu27,Ser28,Lys29]-Glucagon amide] (H-H[Aib]QGTFTSDLSKYLDARRARDFVQWLLSK([γGlu-γGlu-AEEA-AEEA-γGlu-C18 diacid])-NH2; N-terminus assumed)	0.6 nM	2%
CC(C)C[C@H](NC(=O)[C@H](Cc1ccc(O)cc1)NC(=O)[C@H](CCCCN)NC(=O)[C@H](CO)NC(=O)[C@H](CC(C)C)NC(=O)[C@H](CC(=O)O)NC(=O)[C@H](CO)NC(=O)[C@@H](NC(=O)[C@H](Cc1ccccc1)NC(=O)[C@@H](NC(=O)CNC(=O)[C@H](CCC(N)=O)NC(=O)C(C)(C)NC(=O)[C@@H](N)Cc1c[nH]cn1)[C@@H](C)O)[C@@H](C)O)C(=O)N[C@@H](CCC(=O)O)C(=O)N[C@@H](CO)C(=O)N[C@@H](CCCNC(=N)N)C(=O)N[C@@H](CCCNC(=N)N)C(=O)N[C@@H](C)C(=O)N[C@@H](CCCNC(=N)N)C(=O)N[C@@H](CCC(=O)O)C(=O)N[C@@H](Cc1ccccc1)C(=O)N[C@H](C(=O)N[C@@H](CCC(N)=O)C(=O)N[C@@H](Cc1c[nH]c2ccccc12)C(=O)N[C@@H](CC(C)C)C(=O)N[C@@H](CC(C)C)C(=O)N[C@@H](CCCCNC(=O)CC[C@H](NC(=O)CC[C@H](NC(=O)[C@H](CO)NC(=O)[C@H](CCC(=O)O)NC(=O)[C@H](CO)NC(=O)CC[C@H](NC(=O)CC[C@H](NC(=O)CCCCCCCCCCCCCCCCC(=O)O)C(=O)O)C(=O)O)C(=O)O)C(=O)O)C(=O)N[C@H](C(N)=O)[C@@H](C)O)C(C)C [Example 67, N^ε28-[(4S)-4-carboxy-4-[[(4S)-4-carboxy-4-[[(2S)-2-[[(2S)-4-carboxy-2-[[(2S)-2-[[(4S)-4-carboxy-4-[[(4S)-4-carboxy-4-(17-carboxyheptadecanoylamino)butanoyl]amino]butanoyl]amino]-3-hydroxypropanoyl]amino]butanoyl]amino]-3-hydroxypropanoyl]amino]butanoyl]amino]butanoyl]-[Aib2,Leu10,Glu15,Arg20,Glu21,Leu27,Lys28]-Glucagon amide] (H-H[Aib]QGTFTSDLSKYLESRRAREFVQWLLK([γGlu-γGlu-Ser-Glu-Ser-γGlu-γGlu-C18 diacid])T-NH2; N-terminus assumed)	0.3 nM	4%

Continued by falling IC50 (human GLP-1 receptor), values first:

IC50 (human GLP-1 receptor)	Purity loss; 14 days at 37° C. [1]	Compound
0.3 nM	4%	CC(C)C[C@H](NC(=O)[C@H](Cc1ccc(O)cc1)NC(=O)[C@H](CCCCN)NC(=O)[C@H](CO)NC(=O)[C@H](CC(C)C)NC(=O)[C@H](CC(=O)O)NC(=O)[C@H](CO)NC(=O)[C@@H](NC(=O)[C@H](Cc1ccccc1)NC(=O)[C@@H](NC(=O)CNC(=O)[C@H](CCC(N)=O)NC(=O)C(C)(C)NC(=O)[C@@H](N)Cc1c[nH]cn1)[C@@H](C)O)[C@@H](C)O)C(=O)N[C@@H](CC(=O)O)C(=O)N[C@@H](CO)C(=O)N[C@@H](CCCNC(=N)N)C(=O)N[C@@H](CCCNC(=N)N)C(=O)N[C@@H](C)C(=O)N[C@@H](CCCNC(=N)N)C(=O)N[C@@H](CCC(=O)O)C(=O)N[C@@H](Cc1ccccc1)C(=O)N[C@H](C(=O)N[C@@H](CCC(N)=O)C(=O)N[C@@H](Cc1c[nH]c2ccccc12)C(=O)N[C@@H](CC(C)C)C(=O)N[C@@H](CC(C)C)C(=O)N[C@@H](CCCCNC(=O)CC[C@H](NC(=O)CC[C@H](NC(=O)COCCOCCNC(=O)COCCOCCNC(=O)CC[C@H](NC(=O)CCCCCCCCCCCCCCCCC(=O)O)C(=O)O)C(=O)O)C(=O)O)C(=O)N[C@H](C(N)=O)[C@@H](C)O)C(C)C [Example 56, N^ε28-[(4S)-4-carboxy-4-[[(4S)-4-carboxy-4-[[2-[2-[2-[[2-[2-[2-[[(4S)-4-carboxy-4-(17-carboxyheptadecanoylamino)butanoyl]amino]ethoxy]ethoxy]acetyl]amino]ethoxy]ethoxy]acetyl]amino]butanoyl]amino]butanoyl]-[Aib2,Leu10,Arg20,Glu21,Leu27,Lys28]-Glucagon amide] (H-H[Aib]QGTFTSDLSKYLDSRRAREFVQWLLK([γGlu-γGlu-AEEA-AEEA-γGlu-C18 diacid])T-NH2)
0.2 nM	4%	CC(C)C[C@H](NC(=O)[C@H](Cc1ccc(O)cc1)NC(=O)[C@H](CCCCN)NC(=O)[C@H](CO)NC(=O)[C@H](CC(C)C)NC(=O)[C@H](CC(=O)O)NC(=O)[C@H](CO)NC(=O)[C@@H](NC(=O)[C@H](Cc1ccccc1)NC(=O)[C@@H](NC(=O)CNC(=O)[C@H](CCC(N)=O)NC(=O)C(C)(C)NC(=O)[C@@H](N)Cc1c[nH]cn1)[C@@H](C)O)[C@@H](C)O)C(=O)N[C@@H](CCC(=O)O)C(=O)N[C@@H](CO)C(=O)N[C@@H](CCCNC(=N)N)C(=O)N[C@@H](CCCNC(=N)N)C(=O)N[C@@H](C)C(=O)N[C@@H](CCCNC(=N)N)C(=O)N[C@@H](CCC(=O)O)C(=O)N[C@@H](Cc1ccccc1)C(=O)N[C@H](C(=O)N[C@@H](CCC(N)=O)C(=O)N[C@@H](Cc1c[nH]c2ccccc12)C(=O)N[C@@H](CC(C)C)C(=O)N[C@@H](CC(C)C)C(=O)N[C@@H](CCCCNC(=O)CC[C@H](NC(=O)CC[C@H](NC(=O)COCCOCCNC(=O)COCCOCCNC(=O)CC[C@H](NC(=O)CC[C@H](NC(=O)CCCCCCCCCCCCCCCCC(=O)O)C(=O)O)C(=O)O)C(=O)O)C(=O)O)C(=O)N[C@H](C(N)=O)[C@@H](C)O)C(C)C [Example 60, N^ε28-[(4S)-4-carboxy-4-[[(4S)-4-carboxy-4-[[2-[2-[2-[[2-[2-[2-[[(4S)-4-carboxy-4-[[(4S)-4-carboxy-4-(17-carboxyheptadecanoylamino)butanoyl]amino]butanoyl]amino]ethoxy]ethoxy]acetyl]amino]ethoxy]ethoxy]acetyl]amino]butanoyl]amino]butanoyl]-[Aib2,Leu10,Glu15,Arg20,Glu21,Leu27,Lys28]-Glucagon amide] (H-H[Aib]QGTFTSDLSKYLESRRAREFVQWLLK([γGlu-γGlu-AEEA-AEEA-γGlu-γGlu-C18 diacid])T-NH2; N-terminus assumed)
